Test results published in patent US9605008B2, “Benzyl-1H-pyrazolo[3,4-b]pyridines and use thereof” (BAYER PHARMA AKTIENGESELLSCHAFT, priority 2013, dated 2017).

Assays:
[1] = target: human phosphodiesterase 5 (PDE 5) (Homo sapiens (Human), UniProt O76074); assay: Inhibition of human phosphodiesterase 5 (PDE 5); format: biochemical; conditions: PDE 5 preparation from human platelets; [8-3H] cGMP substrate, SPA; in some cases means of individual determinations
Method: B-3. Inhibition of Human Phosphodiesterase 5 (PDE 5)
PDE 5 preparations are obtained from human platelets by disruption (Microfluidizer®, 800 bar, 3 passes), followed by centrifugation (75000 g, 60 min, 4° C.) and ion exchange chromatography of the supernatant on a Mono Q 10/10 column (linear sodium chloride gradient, elution with a 0.2-0.3M solution of sodium chloride in buffer (20 mM Hepes pH 7.2, 2 mM magnesium chloride). Fractions having PDE 5 activity are combined (PDE 5 preparation) and stored at −80° C.
To determine their in vitro action on human PDE 5, the test substances are dissolved in 100% DMSO and serially diluted. Typically, dilution series (1:3) from 200 μM to 0.091 μM are prepared (resulting final concentrations in the test: 4 μM to 0.0018 μM). In each case 2 μl of the diluted substance solutions are placed into the wells of microtitre plates (Isoplate-96/200W; Perkin Elmer). Subsequently, 50 μl of a dilution of the above-described PDE 5 preparation are added. The dilution of the PDE 5 preparation is chosen such that during the later incubation less than 70% of the substrate are converted (typical dilution: 1:100; dilution buffer: 50 mM tris/hydrochloric acid pH 7.5, 8.3 mM magnesium chloride, 1.7 mM EDTA, 0.2% BSA). The substrate, [8-^3H] cyclic guanosine-3′,5′-monophosphate (1 μCi/μl; Perkin Elmer) is diluted 1:2000 with assay buffer (50 mM tris/hydrochloric acid pH 7.5, 8.3 mM magnesium chloride, 1.7 mM EDTA) to a concentration of 0.0005 μCi/μl. By addition of 50 μl (0.025 μCi) of the diluted substrate, the enzyme reaction is finally started. The test mixtures are incubated at room temperature for 60 min and the reaction is stopped by adding 25 μl of a suspension of 18 mg/ml yttrium scintillation proximity beads in water (phosphodiesterase beads for SPA assays, RPNQ 0150, Perkin Elmer). The microtitre plates are sealed with a film and left to stand at room temperature for 60 min. Subsequently, the plates are analysed for 30 s per well in a Microbeta scintillation counter (Perkin Elmer). IC50 values are determined using the graphic plot of the substance concentration against percentage PDE 5 inhibition.

[2] = target: recombinant guanylate cyclase reporter cell line (Rattus norvegicus (Rat), UniProt P19686+P20595); assay: Effect on a recombinant guanylate cyclase reporter cell line; format: cell-based; conditions: in some cases means of individual determinations
Method: B-2. Effect on a Recombinant Guanylate Cyclase Reporter Cell Line
The cellular activity of the compounds according to the invention is determined using a recombinant guanylate cyclase reporter cell line, as described in F. Wunder et al., Anal. Biochem. 339, 104-112 (2005).
Representative values (MEC=minimum effective concentration) for the compounds according to the invention are shown in the table below (Table 1; in some cases as means of individual determinations): […]

recombinant guanylate cyclase reporter cell line, sequence (P19686 whole entry): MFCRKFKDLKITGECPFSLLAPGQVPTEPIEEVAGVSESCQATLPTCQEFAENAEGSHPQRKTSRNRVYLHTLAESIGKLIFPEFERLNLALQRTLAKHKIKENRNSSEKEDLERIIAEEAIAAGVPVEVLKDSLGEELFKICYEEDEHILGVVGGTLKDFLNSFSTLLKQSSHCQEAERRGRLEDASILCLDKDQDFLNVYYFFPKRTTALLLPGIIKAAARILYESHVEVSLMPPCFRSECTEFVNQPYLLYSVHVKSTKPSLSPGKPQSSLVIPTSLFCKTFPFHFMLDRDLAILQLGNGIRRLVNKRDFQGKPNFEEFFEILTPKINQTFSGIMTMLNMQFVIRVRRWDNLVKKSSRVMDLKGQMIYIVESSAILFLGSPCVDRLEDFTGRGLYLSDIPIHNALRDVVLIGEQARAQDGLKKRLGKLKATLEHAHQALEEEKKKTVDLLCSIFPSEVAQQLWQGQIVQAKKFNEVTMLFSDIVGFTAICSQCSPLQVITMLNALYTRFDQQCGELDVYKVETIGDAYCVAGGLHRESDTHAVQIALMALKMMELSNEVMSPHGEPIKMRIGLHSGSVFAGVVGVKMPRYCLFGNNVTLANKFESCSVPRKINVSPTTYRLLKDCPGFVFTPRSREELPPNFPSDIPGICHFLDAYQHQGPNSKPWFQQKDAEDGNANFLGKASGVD
recombinant guanylate cyclase reporter cell line, sequence (P20595 whole entry): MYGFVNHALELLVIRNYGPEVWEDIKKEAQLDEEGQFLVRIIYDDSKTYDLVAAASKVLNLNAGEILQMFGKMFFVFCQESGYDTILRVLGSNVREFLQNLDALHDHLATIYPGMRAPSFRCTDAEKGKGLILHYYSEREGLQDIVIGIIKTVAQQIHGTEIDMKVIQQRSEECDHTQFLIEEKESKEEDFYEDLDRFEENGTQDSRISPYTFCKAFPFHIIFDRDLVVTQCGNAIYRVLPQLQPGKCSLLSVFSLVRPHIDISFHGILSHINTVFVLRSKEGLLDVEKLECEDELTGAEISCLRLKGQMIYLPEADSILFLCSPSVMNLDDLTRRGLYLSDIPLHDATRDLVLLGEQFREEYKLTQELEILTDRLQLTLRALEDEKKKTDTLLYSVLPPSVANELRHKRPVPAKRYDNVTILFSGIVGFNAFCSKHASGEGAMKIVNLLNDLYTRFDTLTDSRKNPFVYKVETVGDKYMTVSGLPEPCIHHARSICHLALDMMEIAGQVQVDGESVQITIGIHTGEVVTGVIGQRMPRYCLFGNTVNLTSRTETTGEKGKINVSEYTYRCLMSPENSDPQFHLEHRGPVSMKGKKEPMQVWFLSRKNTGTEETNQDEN

Compound: Cc1nc2c(cc1F)c(-c1nnc3c(n1)NC(=O)C3(C)C)nn2Cc1cccc(F)c1F [Example 1, 3-[1-(2,3-Difluorobenzyl)-5-fluoro-6-methyl-1H-pyrazolo[3,4-b]pyridin-3-yl]-7,7-dimethyl-5,7-dihydro-6H-pyrrolo[2,3-e][1,2,4]triazin-6-one]
- IC50 [1]: 5 nM
- MEC (minimum effective concentration) [2]: 30 nM

Compound: Cc1nc2c(cc1F)c(-c1nnc3c(n1)[N-]C(=O)C3(C)C)nn2Cc1cccc(F)c1F.[Na+] [Example 2, Sodium 3-[1-(2,3-difluorobenzyl)-5-fluoro-6-methyl-1H-pyrazolo[3,4-b]pyridin-3-yl]-7,7-dimethyl-6-oxo-6,7-dihydropyrrolo[2,3-e][1,2,4]triazin-5-ide]
- IC50 [1]: 5 nM
- MEC (minimum effective concentration) [2]: 30 nM

Compound: Cc1ccc(Cn2nc(-c3nnc4c(n3)NC(=O)C4(C)C)c3cc(F)c(C)nc32)c(F)c1 [Example 5, 3-[5-Fluoro-1-(2-fluoro-4-methylbenzyl)-6-methyl-1H-pyrazolo[3,4-b]pyridin-3-yl]-7,7-dimethyl-5,7-dihydro-6H-pyrrolo[2,3-e][1,2,4]triazin-6-one]
- IC50 [1]: 1.5 nM
- MEC (minimum effective concentration) [2]: 100 nM

Compound: Cc1ccc(Cn2nc(-c3nnc4c(n3)NC(=O)C4(C)C)c3ccc(C)nc32)c(F)c1 [Example 6, 3-[1-(2-Fluoro-4-methylbenzyl)-6-methyl-1H-pyrazolo[3,4-b]pyridin-3-yl]-7,7-dimethyl-5,7-dihydro-6H-pyrrolo[2,3-e][1,2,4]triazin-6-one]
- IC50 [1]: 2 nM
- MEC (minimum effective concentration) [2]: 200 nM

Compound: Cc1nc2c(cc1F)c(-c1nnc3c(n1)NC(=O)C3(C)C)nn2Cc1ccc(F)cc1F [Example 7, 3-[1-(2,4-Difluorobenzyl)-5-fluoro-6-methyl-1H-pyrazolo[3,4-b]pyridin-3-yl]-7,7-dimethyl-5,7-dihydro-6H-pyrrolo[2,3-e][1,2,4]triazin-6-one]
- IC50 [1]: 21 nM
- MEC (minimum effective concentration) [2]: 100 nM

Compound: Cc1ccc2c(-c3nnc4c(n3)NC(=O)C4(C)C)nn(Cc3ccc(F)cc3F)c2n1 [Example 8, 3-[1-(2,4-Difluorobenzyl)-6-methyl-1H-pyrazolo[3,4-b]pyridin-3-yl]-7,7-dimethyl-5,7-dihydro-6H-pyrrolo[2,3-e][1,2,4]triazin-6-one]
- IC50 [1]: 34 nM
- MEC (minimum effective concentration) [2]: 300 nM

Compound: Cc1nc2c(cc1F)c(-c1nnc3c(n1)NC(=O)C3(C)C)nn2Cc1ccc(Cl)cc1F [Example 9, 3-[1-(4-Chloro-2-fluorobenzyl)-5-fluoro-6-methyl-1H-pyrazolo[3,4-b]pyridin-3-yl]-7,7-dimethyl-5,7-dihydro-6H-pyrrolo[2,3-e][1,2,4]triazin-6-one]
- IC50 [1]: 6 nM
- MEC (minimum effective concentration) [2]: 300 nM

Compound: Cc1ccc2c(-c3nnc4c(n3)NC(=O)C4(C)C)nn(Cc3ccc(Cl)cc3F)c2n1 [Example 10, 3-[1-(4-Chloro-2-fluorobenzyl)-6-methyl-1H-pyrazolo[3,4-b]pyridin-3-yl]-7,7-dimethyl-5,7-dihydro-6H-pyrrolo[2,3-e][1,2,4]triazin-6-one]
- IC50 [1]: 4.5 nM
- MEC (minimum effective concentration) [2]: 300 nM

Compound: Cc1nc2c(cc1F)c(-c1nnc3c(n1)NC(=O)C3(C)C)nn2Cc1c(F)ccc(F)c1F [Example 11, 3-[5-Fluoro-6-methyl-1-(2,3,6-trifluorobenzyl)-1H-pyrazolo[3,4-b]pyridin-3-yl]-7,7-dimethyl-5,7-dihydro-6H-pyrrolo[2,3-e][1,2,4]triazin-6-one]
- IC50 [1]: 27 nM
- MEC (minimum effective concentration) [2]: 30 nM

Compound: Cc1ccc2c(-c3nnc4c(n3)NC(=O)C4(C)C)nn(Cc3c(F)ccc(F)c3F)c2n1 [Example 12, 7,7-Dimethyl-3-[6-methyl-1-(2,3,6-trifluorobenzyl)-1H-pyrazolo[3,4-b]pyridin-3-yl]-5,7-dihydro-6H-pyrrolo[2,3-e][1,2,4]triazin-6-one]
- IC50 [1]: 21 nM
- MEC (minimum effective concentration) [2]: 300 nM

Compound: Cc1nc2c(cc1F)c(-c1nnc3c(n1)NC(=O)C3(C)C)nn2Cc1cccc(Cl)c1F [Example 13, 3-[1-(3-Chloro-2-fluorobenzyl)-5-fluoro-6-methyl-1H-pyrazolo[3,4-b]pyridin-3-yl]-7,7-dimethyl-5,7-dihydro-6H-pyrrolo[2,3-e][1,2,4]triazin-6-one]
- IC50 [1]: 42 nM
- MEC (minimum effective concentration) [2]: 100 nM

Compound: Cc1ccc2c(-c3nnc4c(n3)NC(=O)C4(C)C)nn(Cc3cccc(Cl)c3F)c2n1 [Example 14, 3-[1-(3-Chloro-2-fluorobenzyl)-6-methyl-1H-pyrazolo[3,4-b]pyridin-3-yl]-7,7-dimethyl-5,7-dihydro-6H-pyrrolo[2,3-e][1,2,4]triazin-6-one]
- IC50 [1]: 63 nM
- MEC (minimum effective concentration) [2]: 300 nM

Compound: Cc1nc2c(cc1F)c(-c1nnc3c(n1)NC(=O)C3(C)C)nn2Cc1c(F)cccc1F [Example 15, 3-[1-(2,6-Difluorobenzyl)-5-fluoro-6-methyl-1H-pyrazolo[3,4-b]pyridin-3-yl]-7,7-dimethyl-5,7-dihydro-6H-pyrrolo[2,3-e][1,2,4]triazin-6-one]
- IC50 [1]: 67 nM
- MEC (minimum effective concentration) [2]: 65 nM

Compound: Cc1ccc2c(-c3nnc4c(n3)NC(=O)C4(C)C)nn(Cc3c(F)cccc3F)c2n1 [Example 16, 3-[1-(2,6-Difluorobenzyl)-6-methyl-1H-pyrazolo[3,4-b]pyridin-3-yl]-7,7-dimethyl-5,7-dihydro-6H-pyrrolo[2,3-e][1,2,4]triazin-6-one]
- IC50 [1]: 24 nM
- MEC (minimum effective concentration) [2]: 300 nM

Compound: Cc1ccc(Cn2nc(-c3nnc4c(n3)NC(=O)C4(C)C)c3cc(F)c(C)nc32)cc1F [Example 17, 3-[5-Fluoro-1-(3-fluoro-4-methylbenzyl)-6-methyl-1H-pyrazolo[3,4-b]pyridin-3-yl]-7,7-dimethyl-5,7-dihydro-6H-pyrrolo[2,3-e][1,2,4]triazin-6-one]
- IC50 [1]: 8 nM
- MEC (minimum effective concentration) [2]: 300 nM

Compound: Cc1ccc2c(-c3nnc4c(n3)NC(=O)C4(C)C)nn(Cc3ccc(C)c(F)c3)c2n1 [Example 18, 3-[1-(3-Fluoro-4-methylbenzyl)-6-methyl-1H-pyrazolo[3,4-b]pyridin-3-yl]-7,7-dimethyl-5,7-dihydro-6H-pyrrolo[2,3-e][1,2,4]triazin-6-one]
- IC50 [1]: 10 nM
- MEC (minimum effective concentration) [2]: 1000 nM

Compound: Cc1ccc(Cn2nc(-c3nnc4c(n3)NC(=O)C4(C)C)c3cc(F)c(C)nc32)c(F)c1F [Example 19, 3-[1-(2,3-Difluoro-4-methylbenzyl)-5-fluoro-6-methyl-1H-pyrazolo[3,4-b]pyridin-3-yl]-7,7-dimethyl-5,7-dihydro-6H-pyrrolo[2,3-e][1,2,4]triazin-6-one]
- IC50 [1]: 0.25 nM
- MEC (minimum effective concentration) [2]: 300 nM

Compound: Cc1ccc2c(-c3nnc4c(n3)NC(=O)C4(C)C)nn(Cc3ccc(C)c(F)c3F)c2n1 [Example 20, 3-[1-(2,3-Difluoro-4-methylbenzyl)-6-methyl-1H-pyrazolo[3,4-b]pyridin-3-yl]-7,7-dimethyl-5,7-dihydro-6H-pyrrolo[2,3-e][1,2,4]triazin-6-one]
- IC50 [1]: 0.65 nM
- MEC (minimum effective concentration) [2]: 300 nM

Compound: Cc1ccc(Cn2nc(-c3nnc4c(n3)NC(=O)C43CC3)c3ccc(C)nc32)c(F)c1 [Example 22, 3′-[1-(2-Fluoro-4-methylbenzyl)-6-methyl-1H-pyrazolo[3,4-b]pyridin-3-yl]spiro[cyclopropane-1,7′-pyrrolo[2,3-e][1,2,4]triazin]-6′(5′H)-one]
- IC50 [1]: 16 nM

Compound: Cc1ccc2c(-c3nnc4c(n3)NC(=O)C43CC3)nn(Cc3cccc(F)c3F)c2n1 [Example 24, 3′-[1-(2,3-Difluorobenzyl)-6-methyl-1H-pyrazolo[3,4-b]pyridin-3-yl]spiro[cyclopropane-1,7′-pyrrolo[2,3-e][1,2,4]triazin]-6′(5′H)-one]
- IC50 [1]: 21 nM
- MEC (minimum effective concentration) [2]: 300 nM

Compound: Cc1ccc2c(-c3nnc4c(n3)NC(=O)C43CC3)nn(Cc3ccc(C)c(F)c3F)c2n1 [Example 26, 3′-[1-(2,3-Difluoro-4-methylbenzyl)-6-methyl-1H-pyrazolo[3,4-b]pyridin-3-yl]spiro[cyclopropane-1,7′-pyrrolo[2,3-e][1,2,4]triazin]-6′(5′H)-one]
- IC50 [1]: 4 nM
- MEC (minimum effective concentration) [2]: 300 nM
